In patent US5070210A, “Novel ketenimines as intermediates for insecticides” (ICI Americas Inc., priority 1990, dated 1991):

Assays:
Assay type in all cases: in vivo
[1] = system: Aster Leafhopper [Macrosteles fascifrens (Stal)]; assay: Aster leafhopper insecticidal test; settings: adults/nymphs, percent in solution; 48 hours
Summary of the method: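 Three ~10 cm oat seedlings per cup were dipped 2-3 seconds in 50-50 acetone-water compound solutions, dried, and caged with ten adult/nymph leafhoppers. Mortality was counted after 48 hours at concentrations from 0.05% downward. LC50, as percent compound in solution, came from dosage-mortality curves.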

[2] = system: Tobacco Budworm [Heliothis virescens (Fabricius)] larvae; assay: Tobacco budworm contact test; settings: second-instar larvae, percent in solution, 5 days
Summary of the method: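 Cotton cotyledons dipped 2–3 s in compound in 50-50 acetone-water, dried, then infested with 5 second-instar larvae and held 5 days at high humidity. Mortality scored; LC50 from dosage-mortality curves, expressed as percent compound in solution, concentrations from 0.1% downward.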

[3] = system: Rice water weevil [Lissorhoptrus oryzophilus (Kuschel)]; assay: Rice water weevil insecticidal test; settings: topical, μg per weevil; 48 hours
Protocol: The compounds in Tables 1 and 2 above were tested for insecticidal activity using the following testing procedures. LC50 values, based on the results of these tests and calculated according to dosage-mortality curves, are expressed in Table 3.
Rice water weevil [Lissorhoptrus oryzophilus (Kuschel)]:
Test compounds were diluted in acetone. Droplets (1 μl) of test solutions were applied to the ventral abdomens of ten female adult weevils. The treated weevils were placed in containers with wet cotton balls and rice foliage. The containers were covered and kept at a temperature of about 25° C. Mortality was recorded after 48 hours. Test concentrations ranged from […] or 2.5 μg per weevil down to that at which 50% mortality occurred. The LC50 values are expressed below in Table 3 under the heading "RWW" in terms of μg of test compound per weevil.

[4] = system: Beet Armyworm (Spodoptera exigua); assay: Beet armyworm insecticidal test; settings: second-instar larvae, percent in solution; five days
Summary of the method: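 Sugar beet leaves dipped 2–3 s in compound diluted in 50:50 acetone-water, dried, then infested with five second-instar larvae in humid petri dishes. Mortality scored at 5 days; concentrations from 0.1% downward. LC50 from dosage-mortality curves, expressed as percent compound in solution.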

[5] = system: Cabbage Looper [Trichoplusia ni (Hubner)]; assay: Cabbage looper insecticidal test; settings: second-instar larvae, percent in solution; 3-5 days
Summary of the method: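 Squash cotyledons dipped 2-3 s in compound in 50-50 acetone-water, dried, then infested with 5 second-instar larvae and held at high humidity. Mortality scored after 3-5 days at concentrations from 0.1% downward. LC50 from dosage-mortality curves, expressed as percent compound in solution.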

[6] = system: Housefly [Musca domestica]; assay: Housefly insecticidal test; settings: μg per 25 female flies; mortality after 48 hours
Summary of the method: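 Dose range started at 100 μg per 25 female flies and went downward. Insects (1-2 days old) contacted a dried acetone/peanut-oil deposit in dishes; LC50 values come from dosage-mortality curves at 48 h.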

[7] = system: Tobacco Budworm [Heliothis virescens (Fabricius)] eggs; assay: Tobacco budworm egg test; settings: 2-day old eggs, percent in solution
Summary of the method: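 Paper-towel patches of 2-day-old eggs dipped in acetone solutions of compound (0.1% downward), held on larval rearing medium at 78° F. Mortality scored once all control eggs had hatched and larvae were feeding; LC50 from dosage-mortality curves, expressed as percent compound in solution.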

[8] = system: Maize weevil [Sitophilus Zeamais (Motschulsky)]; assay: Maize weevil insecticidal test; settings: adult weevils, percent in solution; 48 hours
Summary of the method: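 LC50, in percent of compound in solution, was derived from dosage-mortality curves after 48 h at about 25 °C. Ten adult weevils per container fed on four corn seeds briefly immersed in acetone:water (50:50) solutions of up to 0.01% and dried.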

SMILES | LC50, LH [1] [%] | LC50, TBW, C (TBW-C) [2] [%] | LC50, RWW [3] [µg] | LC50, BAW [4] [%] | LC50, CL [5] [%] | LC50, HF [6] [µg] | LC50, TBW, E (TBW-E) [7] [%] | LC50, MW [8] [%]
CC(C)C(=Nc1cc(F)cc(F)c1)OCc1cccc(Oc2ccccc2)c1 [Compound 55] | 0.0005 | 0.004 | > 2.5 | 0.006 | 0.0017 | > 100 | 0.06 | –
FC(F)(F)c1cccc(N=C(OCc2cccc(Oc3ccccc3)c2)C(Cl)Cl)c1 [Compound 66] | 0.001 | – | > 2.5 | 0.0065 | < 0.0025 | 9.7 | 0.06 | –
CC(C)C(=Nc1ccc(F)c(Cl)c1)OCc1cccc(Oc2ccccc2)c1 [Compound 81] | 0.0003 | 0.0009 | > 0.5 | 0.003 | 0.0006 | 4 | 0.007 | 0.005
CC(C)C(=Nc1ccc(F)c(Cl)c1)OCc1ccc(F)c(Oc2ccccc2)c1 [Compound 82] | 0.0001 | 0.0008 | 0.086 | 0.0025 | 0.00018 | 2.5 | 0.006 | –
CC(C)C(=Nc1ccc2c(c1)OCO2)OCc1ccc(F)c(Oc2ccccc2)c1 [Compound 181] | – | 0.001 | > 2.5 | 0.001 | 0.0005 | 25 | 0.01 | 0.005
CC(C)C(=Nc1ccc2c(c1)OC(F)(F)O2)OCc1cccc(Oc2ccc(F)cc2)c1 [Compound 244] | – | 0.00025 | 0.09 | 0.002 | 0.00004 | 14 | > 0.1 | 0.0025
CC(C)C(=Nc1ccc2c(c1)OC(F)(F)O2)OCc1cccc(Oc2ccccc2)c1 [Compound 245] | – | 0.0015 | > 2.5 | 0.001 | 0.0035 | 20 | 0.016 | 0.006
CC(C)C(=Nc1ccc(F)c(I)c1)OCc1ccc(F)c(Oc2ccc(F)cc2)c1 [Compound 281] | – | 0.00025 | > 2.5 | 0.0027 | 0.00002 | 5 | 0.006 | 0.005
CC(C)C(=Nc1ccc2c(c1)OC(F)(F)O2)OCc1ccc(F)c(Oc2ccccc2)c1 [Compound 285] | – | 0.00017 | 0.13 | 0.0006 | 0.000075 | 36 | 0.005 | 0.005
CC(C)C(=Nc1ccc(Cl)c(Cl)c1)OCc1ccc(F)c(Oc2ccc(F)cc2)c1 [Compound 289] | 0.0003 | – | 0.082 | – | 0.00007 | 10 | 0.006 | > 0.01
CC(C)C(=Nc1ccc(F)c(F)c1)OCc1ccc(F)c(Oc2ccc(Cl)cc2)c1 [Compound 295] | 0.0001 | 0.0005 | > 2.5 | – | 0.00004 | 7.8 | 0.01 | 0.0053
CC(C)C(=Nc1ccc(Cl)c(Cl)c1)OCc1ccc(F)c(Oc2ccc(Cl)cc2)c1 [Compound 296] | 0.0003 | 0.00045 | 0.14 | – | 0.00025 | 38 | 0.025 | –
